Source: US8410107B2, “N-pyridin-3-yl or N-pyrazin-2-yl carboxamides” (Hoffmann-La Roche Inc., priority 2010, dated 2013)

How the values were obtained:
human CB1 receptor = target: T1, human CB1 receptor (Homo sapiens, UniProt P21554); test: CB1 receptor affinity ([3H]-CP-55,940 displacement, HEK cell membranes); type: binding; settings: displacement of radioligand [3H]-CP-55,940
T1 construct: expressed in transfected cells; host or cells: human embryonic kidney (HEK) cells, Semliki Forest Virus system, membrane preparations
T1 sequence (P21554 whole entry): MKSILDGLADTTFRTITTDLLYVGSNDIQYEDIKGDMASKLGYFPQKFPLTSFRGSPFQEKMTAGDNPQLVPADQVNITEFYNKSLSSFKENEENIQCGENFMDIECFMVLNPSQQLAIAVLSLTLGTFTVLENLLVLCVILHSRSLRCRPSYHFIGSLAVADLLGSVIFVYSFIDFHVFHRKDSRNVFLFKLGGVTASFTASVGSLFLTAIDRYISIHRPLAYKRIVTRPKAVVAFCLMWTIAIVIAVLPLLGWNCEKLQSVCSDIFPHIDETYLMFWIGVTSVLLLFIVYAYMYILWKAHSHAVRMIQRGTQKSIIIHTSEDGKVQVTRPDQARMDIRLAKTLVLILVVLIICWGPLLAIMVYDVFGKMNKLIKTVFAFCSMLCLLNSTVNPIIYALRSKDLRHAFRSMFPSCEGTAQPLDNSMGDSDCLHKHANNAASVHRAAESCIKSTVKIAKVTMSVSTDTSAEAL
Method: (§1) The affinity of the compounds of the invention for cannabinoid receptors was determined using membrane preparations of human embryonic kidney (HEK) cells in which the human CB1 receptor is transiently transfected using a Semliki Forest Virus system in conjunction with [3H]-CP-55,940 as radioligand. After incubation of freshly prepared cell membrane preparation with the [^3H]-ligand, with or without addition of compounds of the invention, separation of bound and free ligand was performed by filtration over glass fiber filters. Radioactivity on the filter was measured by scintillation counting.
(§2) The ability of the compounds to displace the radioligand [^3H]-CP-55,940 was measured at a concentration of 10 μM and values provided as [% inhibition @ 10 μM] both for the CB1 and CB2 receptor assay, The lower % inhibition is, the lower the likelihood of side effects based on CB1 or CB2 receptor inhibition is.

ABCA1 protein = test: Detection of upregulation of ABCA1 protein in cells (ApoA-I binding, high content image analysis); type: cell-based; settings: THP-1 macrophage cells; for EC50: ABCA1 protein increasing efficacy; for % increase of ABCA1 at 3 μM: 24 hrs with compound
Method: The ability of compounds of the invention to increase the level of ABCA1 protein is determined in replicate cultures of THP-1 macrophage cells in 96-well microplates. Cells are plated at an initial density of 100,000 cells/well in 100 μl medium and differentiated to adherent macrophages with the addition of PMA (100 nM) for 68 hrs in 10% fetal bovine serum, 3 μl/L of b-mercaptoethanol, RPMI-1640 medium. Then, cells are incubated with RPMI-1640 medium containing 1% FCS, 25 μg/ml acetylated LDL, for 24 hours at 37°. Following incubation with acetylated LDL, cells are washed twice with 50 μl PBS and incubated with 100 μl of RPMI-1640 medium containing the compound of interest solubilized in DMSO for an additional 24 hrs. The final DMSO concentration in presence of cells is maintained at 0.5%. ApoA-I binding assay using High Content Image Analysis is initiated by replacing with fresh medium, RPMI without Phenol Red, 0.2% BSA containing AlexaFluor®647 labeled ApoA-I for 2 h/37° C./5% CO2. Then, cells are fixed with 4% Formaldehyde inPBS (15 min, RT). Following Nuclei are stained with Hoechst solution (3 μM PBS) and Cytoplasm with Cell Mask Blue (2 μg/ml PBS), 15 min, RT. Finally the stained cells are fixed with a second round of formaldehyde treatment. Fixed stained cells are washed and kept in PBS at 4° C. and can be read immediately until one month after preparation.
The Alexa Fluor 647-labeled Apolipoprotein A-I (20 nM) was prepared as follows: Human recombinant Apolipoprotein A-I (ApoA-I) was exchanged to a buffer of 0.02 M NaHCO3 at pH 8.2 on an NAP desalting column (GE Healthcare) and brought to a concentration to 40 μM (1.13 mg/ml) by adjustment with the same buffer. The ApoA-I was fluorescently labeled by incubation with Alexa Fluor carboxylic acid succimidyl ester. (Alexa Fluor 647, Invitrogen A-20006) at a 2:1 molar ratio (Alexa to ApoA-I) for 1 h under shaking at RT. The remaining unconjugated label was removed by buffer exchange to 0.02M NaHCO3 at pH 8.2.
Imaging and data collection were performed on an OPERA confocal microplate imaging reader using a 20× water immersion objective and UV360 or 405 laser to identify the cell nuclei and a 635 laser to identify the fluorescent ApoA-I. Eight fields of view are captured per well. Image capture and analysis was performed with the Acapella software. Background fluorescence detected in control wells without ApoA-I was subtracted.
Using XLfit3 program (ID Business Solutions Ltd. UK), the model 205 for Dose Response One Site is used to calculate the EC50 values. The compounds of the present invention increase the level of ABCA1 protein by more than 45% at a concentration of 3 μM. […] Even more preferably, the compounds of the present invention have EC50 values in a range of 0.1 μM to 3 μM.

human CB2 receptor = target: T2, human CB2 receptor (Homo sapiens, UniProt P34972); test: CB2 receptor affinity ([3H]-CP-55,940 displacement, HEK cell membranes); type: binding; settings: displacement of radioligand [3H]-CP-55,940
T2 construct: expressed in transfected cells; host or cells: human embryonic kidney (HEK) cells, Semliki Forest Virus system, membrane preparations
T2 sequence (P34972 whole entry): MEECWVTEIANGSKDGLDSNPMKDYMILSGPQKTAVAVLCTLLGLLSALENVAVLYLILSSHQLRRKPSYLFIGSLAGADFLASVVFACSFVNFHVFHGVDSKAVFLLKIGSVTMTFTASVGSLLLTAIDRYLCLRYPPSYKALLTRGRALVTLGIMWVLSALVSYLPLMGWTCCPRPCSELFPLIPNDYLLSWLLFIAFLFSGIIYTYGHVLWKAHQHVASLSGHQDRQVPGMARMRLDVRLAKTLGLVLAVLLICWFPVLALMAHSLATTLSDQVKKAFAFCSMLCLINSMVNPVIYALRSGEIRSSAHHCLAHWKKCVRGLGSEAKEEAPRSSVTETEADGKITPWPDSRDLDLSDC
Method: as §1, with “cannabinoid CB2” for “cannabinoid”, “CB2” for “CB1”, “[^3H]-CP-55,940” for “[3H]-CP-55,940”
as §2

inhibition at 10 µM (human CB1 receptor) [%]	inhibition at 10 µM (human CB2 receptor) [%]	SMILES	EC50 (ABCA1 protein) [nM]	% increase of ABCA1 at 3 μM (ABCA1 protein) [% @ 3 μM]
19	-5	O=C(Nc1cnc(OCC(F)(F)F)c(-c2ccc(Cl)cc2)c1)c1ccc(O)cn1 [Example 40, 5-hydroxy-pyridine-2-carboxylic acid[5-(4-chloro-phenyl)-6-(2,2,2-trifluoro-ethoxy)-pyridin-3-yl]-amide]	3310	–
31	8	Cc1cncc(C(=O)Nc2cnc(OCC(F)(F)F)c(-c3ccc(Cl)cc3)c2)c1 [Example 41, N-(5-(4-chlorophenyl)-6-(2,2,2-trifluoroethoxy)pyridin-3-yl)-5-methylnicotin-amide]	–	>45
23	6	C[C@H](Oc1ncc(NC(=O)c2cccnn2)cc1-c1ccc(Cl)cc1)C(F)(F)F [Example 42, (S)-N-(5-(4-chlorophenyl)-6-(1,1,1-trifluoropropan-2-yloxy)pyridin-3-yl)pyridazine-3-carboxamide]	8540	–
31	6	C[C@H](Oc1ncc(NC(=O)c2cccnc2)cc1-c1ccc(Cl)cc1)C(F)(F)F [Example 43, (S)-N-(5-(4-chlorophenyl)-6-(1,1,1-trifluoropropan-2-yloxy)pyridin-3-yl)nicotinamide]	5950	–
15	14	O=C(Nc1cnc(OCC(F)(F)F)c(-c2ccc(Cl)c(F)c2)c1)c1cccnc1 [Example 44, N-(5-(4-chloro-3-fluorophenyl)-6-(2,2,2-trifluoroethoxy)pyridin-3-yl)nicotin-amide]	1260	–
11	13	O=C(Nc1cnc(OCC(F)(F)F)c(-c2ccc(F)c(Cl)c2)c1)c1cccnc1 [Example 45, N-(5-(3-chloro-4-fluorophenyl)-6-(2,2,2-trifluoroethoxy)pyridin-3-yl)nicotin-amide]	1030	–
40	-1	O=C(Nc1cnc(OCC(F)(F)F)c(-c2ccc(Cl)cc2F)c1)c1cccnc1 [Example 46, N-(5-(4-chloro-2-fluorophenyl)-6-(2,2,2-trifluoroethoxy)pyridin-3-yl)nicotin-amide]	–	>45
34	5	CCc1ccc(-c2cc(NC(=O)c3cccnc3)cnc2OCC(F)(F)F)cc1 [Example 47, N-(5-(4-ethylphenyl)-6-(2,2,2-trifluoroethoxy)pyridin-3-yl)nicotinamide]	1360	–
40	-2	C[C@H](Oc1ncc(NC(=O)c2cccnc2)nc1-c1ccc(Cl)cc1)C(F)(F)F [Example 48, (S)-N-(6-(4-chlorophenyl)-5-(1,1,1-trifluoropropan-2-yloxy)pyrazin-2-yl)nicotinamide]	–	>45
39	-3	O=C(Nc1cnc(OCC(F)(F)F)c(-c2ccc(Cl)cc2)n1)c1cccnc1 [Example 49, N-(6-(4-chlorophenyl)-5-(2,2,2-trifluoroethoxy)pyrazin-2-yl)nicotinamide]	300	–
34	6	Cc1cc(-c2cc(NC(=O)c3cncnc3)cnc2OCC(F)(F)F)ccc1Cl [Example 52, N-(5-(4-chloro-3-methylphenyl)-6-(2,2,2-trifluoroethoxy)pyridin-3-yl)pyrimidine-5-carboxamide]	–	>45
21	0	O=C(Nc1cnc(OCC(F)(F)F)c(-c2ccc(Cl)c(F)c2)c1)c1cncnc1 [Example 53, N-(5-(4-chloro-3-fluorophenyl)-6-(2,2,2-trifluoroethoxy)pyridin-3-yl)pyrimidine-5-carboxamide]	–	>45
21	10	O=C(Nc1cnc(OCC(F)(F)F)c(-c2ccc(F)c(Cl)c2)c1)c1cncnc1 [Example 54, N-(5-(3-chloro-4-fluorophenyl)-6-(2,2,2-trifluoroethoxy)pyridin-3-yl)pyrimidine-5-carboxamide]	–	>45
35	4	O=C(Nc1cnc(OCC(F)(F)F)c(-c2ccc(Cl)cc2F)c1)c1cncnc1 [Example 55, N-(5-(4-chloro-2-fluorophenyl)-6-(2,2,2-trifluoroethoxy)pyridin-3-yl)pyrimidine-5-carboxamide]	–	>45
35	0	CCc1ccc(-c2cc(NC(=O)c3cncnc3)cnc2OCC(F)(F)F)cc1 [Example 56, N-(5-(4-ethylphenyl)-6-(2,2,2-trifluoroethoxy)pyridin-3-yl)pyrimidine-5-carboxamide]	–	>45
0	-18	Cc1cc(-c2cc(NC(=O)c3ccnc(O)c3)cnc2OCC(F)(F)F)ccc1Cl [Example 57, N-(5-(4-chloro-3-methylphenyl)-6-(2,2,2-trifluoroethoxy)pyridin-3-yl)-2-hydroxyisonicotinamide]	–	>45
3	-13	Cc1cc(-c2cc(NC(=O)c3cn(C)nc3C)cnc2OCC(F)(F)F)ccc1Cl [Example 58, N-(5-(4-chloro-3-methylphenyl)-6-(2,2,2-trifluoroethoxy)pyridin-3-yl)-1,3-dimethyl-1H-pyrazole-4-carboxamide]	2200	–
22	18	Cc1cc(-c2cc(NC(=O)c3c(F)ccnc3F)cnc2OCC(F)(F)F)ccc1Cl [Example 59, N-(5-(4-chloro-3-methylphenyl)-6-(2,2,2-trifluoroethoxy)pyridin-3-yl)-2,4-difluoronicotinamide]	3900	–
38	-2	O=C(Nc1cnc(OCC(F)(F)F)c(-c2ccc(Cl)cc2)c1)c1ccccc1O [Example 60, N-(5-(4-chlorophenyl)-6-(2,2,2-trifluoroethoxy)pyridin-3-yl)-2-hydroxy-benzamide]	–	>45
17	12	Cc1cc(-c2cc(NC(=O)c3cncc(C#N)c3)cnc2OCC(F)(F)F)ccc1Cl [Example 61, N-(5-(4-chloro-3-methylphenyl)-6-(2,2,2-trifluoroethoxy)pyridin-3-yl)-5-cyanonicotinamide]	–	>45

SMILES	inhibition at 10 µM (human CB1 receptor) [%]	inhibition at 10 µM (human CB2 receptor) [%]	EC50 (ABCA1 protein) [nM]	% increase of ABCA1 at 3 μM (ABCA1 protein) [% @ 3 μM]
O=C(Nc1cnc(OC2CCC2)c(-c2ccc(Cl)cc2)n1)c1cccnc1 [Example 50, N-(6-(4-chlorophenyl)-5-cyclobutoxypyrazin-2-yl)nicotinamide]	39	-1	1500	–
O=C(Nc1cnc(OC2CCC2)c(-c2ccc(Cl)cc2)n1)c1cncnc1 [Example 51, N-(6-(4-chlorophenyl)-5-cyclobutoxypyrazin-2-yl)pyrimidine-5-carboxamide]	48	6	–	>45
